Experimental data: publication PMC6261342 (Journal of the American Chemical Society, 2018)

Target: T1, O-GlcNAc transferase (OGT) (Homo sapiens, UniProt O15294)
T1 sequence (O15294 323-1041): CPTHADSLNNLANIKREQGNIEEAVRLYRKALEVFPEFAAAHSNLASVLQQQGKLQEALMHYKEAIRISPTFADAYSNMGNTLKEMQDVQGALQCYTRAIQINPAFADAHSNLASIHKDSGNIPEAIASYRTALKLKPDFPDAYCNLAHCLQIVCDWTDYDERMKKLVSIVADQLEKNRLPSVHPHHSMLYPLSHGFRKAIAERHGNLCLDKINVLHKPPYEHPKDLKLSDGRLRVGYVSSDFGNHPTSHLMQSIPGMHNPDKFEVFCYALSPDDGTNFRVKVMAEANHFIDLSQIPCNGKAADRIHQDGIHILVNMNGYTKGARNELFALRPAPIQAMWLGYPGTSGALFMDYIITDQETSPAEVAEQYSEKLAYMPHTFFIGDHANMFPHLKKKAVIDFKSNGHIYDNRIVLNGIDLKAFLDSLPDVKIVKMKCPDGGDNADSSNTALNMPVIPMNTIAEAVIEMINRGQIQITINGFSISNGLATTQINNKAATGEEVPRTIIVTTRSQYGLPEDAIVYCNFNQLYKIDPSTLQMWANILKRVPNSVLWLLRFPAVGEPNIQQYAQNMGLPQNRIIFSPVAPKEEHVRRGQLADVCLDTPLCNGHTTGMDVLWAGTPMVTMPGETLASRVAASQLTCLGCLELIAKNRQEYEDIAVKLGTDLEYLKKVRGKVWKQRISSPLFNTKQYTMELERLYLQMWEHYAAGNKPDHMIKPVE
Test: microscale thermophoresis
Format: binding

Compound | Kd
CC(=O)N[C@H]1[C@@H](OP(=O)(O)OP(=O)(O)OC[C@H]2O[C@@H](n3ccc(=O)[nH]c3=O)[C@H](O)[C@@H]2O)O[C@H](CO)[C@@H](O)[C@@H]1O [UDP-GlcNAc] | confirming that the method produced Kds for UDP and UDP-GlcNAc similar to those
O=c1ccn([C@@H]2O[C@H](COP(=O)(O)OP(=O)(O)O)[C@@H](O)[C@H]2O)c(=O)[nH]1 [UDP] | confirming that the method produced Kds for UDP and UDP-GlcNAc similar to those
